Values quoted from earlier work, collected in patent US20030077328A1, “Method and composition for inhibiting post-surgical adhesions” (priority 1995, published 2003).

System: post-traumatic adhesion formation
Settings: hamster; 0.1 to 10 mg/kg subcutaneously at 12-hour intervals

CC(=O)CCCCn1c(=O)c2c(ncn2C)n(C)c1=O [pentoxifylline]
protection against post-traumatic adhesion formation: provide protection against post-traumatic adhesion formation
